Reference: EP4775574A1, “FURAN RING-CONTAINING COMPOUND, PHARMACEUTICAL COMPOSITION THEREOF, AND USE THEREOF” (Wuhan Xirui Pharmaceutical Technology Co., Ltd, priority 2023, dated 2025)
Like-named read-outs stand apart in the source and are kept apart here.

Molecular target: T1, Nav1.8 sodium channel (Homo sapiens, UniProt Q9Y5Y9)
T1 construct: host or cells: CHO
Assay: Blocking activity against sodium channel 1.8 (Nav1.8), whole-cell patch-clamp, inhibition rate
Type: cell-based
Procedure: Experimental objective: The effects of the compounds on the current of the voltage-gated sodium channel (NaV) 1.8 subtype were detected by patch-clamp technique • 2. […] When the cells were detached from the bottom of the dish, about 5 mL of preheated complete medium at 37°C was added. The cell suspension was gently pipetted up and down to separate the aggregated cells. The cell suspension was transferred to a sterile centrifuge tube and centrifuged at 1000 rpm for 5 min to collect the cells. […] First, the voltage was stepped from -130 mV to -10 mV in 10 mV increments for 5 s, and then a 0 mV depolarizing pulse was applied to obtain the half-inactivation voltage (Vhalf). The resting state and half-inactivated state of the sodium current were detected by using a double-pulse protocol. First, the first depolarizing pulse (TP1) was applied to 0 mV for 50 ms to detect the sodium current in the resting state. Then, the voltage was adjusted to Vhalf and maintained for 5 s, followed by restoration of the voltage to -120 mV and maintenance for 20 ms, after which the second depolarizing pulse (TP2) was applied to 0 mV for 50 ms to detect the sodium current in the half-inactivated state. Finally, the voltage was restored to the clamping voltage of -120 mV. Data were repeatedly collected every […] to observe the effect of the drug on the peak values of sodium currents in the two different states. Experimental data were collected by the EPC 10 amplifier (HEKA) and stored in the PatchMaster (HEKA) software. • (2) During patch clamp operation, capillary glass tubes were first pulled into recording electrodes using a microelectrode puller, then the electrodes filled with intracellular solution were installed into the microelectrode holder. Under an inverted microscope, the micromanipulator was used to bring the recording electrode into contact with the cell, and negative pressure suction was applied to form a GΩ seal. At this time, fast capacitance compensation was performed, and then negative pressure was continuously applied to rupture the cell membrane and form the whole-cell recording mode. Finally, slow capacitance compensation was performed, and related parameters were recorded. Leak compensation was not applied. • (3) When the sodium current of whole-cell recording became stable, drug administration was started, and each drug concentration was applied for 5 min (or until the current became stable) before the next concentration was tested. The coverslip coated with cells was placed in the recording bath under an inverted microscope, and the blank control external solution and the test compound working solution were perfused through the recording bath in sequence from low concentration to high concentration by gravity, thereby acting on the cells, while a peristaltic pump was used for liquid exchange during recording. The current detected in the external solution without compounds for each cell was used as its own control group. Each concentration was independently tested twice. All electrophysiological experiments were conducted at room temperature.
First, the current after the effect of each drug concentration and the blank control current were normalized, then the inhibition rate corresponding to each drug concentration was calculated, that is, (1-Icompound /Icontrol), and the mean, standard deviation (SD), and standard error (SE) of the inhibition rate for each concentration were calculated, and the data were expressed as mean ± SE.

[1] = CHO cell line stably expressing Nav1.8, patch-clamp, test concentration not given

T1 sequence (Q9Y5Y9 whole entry): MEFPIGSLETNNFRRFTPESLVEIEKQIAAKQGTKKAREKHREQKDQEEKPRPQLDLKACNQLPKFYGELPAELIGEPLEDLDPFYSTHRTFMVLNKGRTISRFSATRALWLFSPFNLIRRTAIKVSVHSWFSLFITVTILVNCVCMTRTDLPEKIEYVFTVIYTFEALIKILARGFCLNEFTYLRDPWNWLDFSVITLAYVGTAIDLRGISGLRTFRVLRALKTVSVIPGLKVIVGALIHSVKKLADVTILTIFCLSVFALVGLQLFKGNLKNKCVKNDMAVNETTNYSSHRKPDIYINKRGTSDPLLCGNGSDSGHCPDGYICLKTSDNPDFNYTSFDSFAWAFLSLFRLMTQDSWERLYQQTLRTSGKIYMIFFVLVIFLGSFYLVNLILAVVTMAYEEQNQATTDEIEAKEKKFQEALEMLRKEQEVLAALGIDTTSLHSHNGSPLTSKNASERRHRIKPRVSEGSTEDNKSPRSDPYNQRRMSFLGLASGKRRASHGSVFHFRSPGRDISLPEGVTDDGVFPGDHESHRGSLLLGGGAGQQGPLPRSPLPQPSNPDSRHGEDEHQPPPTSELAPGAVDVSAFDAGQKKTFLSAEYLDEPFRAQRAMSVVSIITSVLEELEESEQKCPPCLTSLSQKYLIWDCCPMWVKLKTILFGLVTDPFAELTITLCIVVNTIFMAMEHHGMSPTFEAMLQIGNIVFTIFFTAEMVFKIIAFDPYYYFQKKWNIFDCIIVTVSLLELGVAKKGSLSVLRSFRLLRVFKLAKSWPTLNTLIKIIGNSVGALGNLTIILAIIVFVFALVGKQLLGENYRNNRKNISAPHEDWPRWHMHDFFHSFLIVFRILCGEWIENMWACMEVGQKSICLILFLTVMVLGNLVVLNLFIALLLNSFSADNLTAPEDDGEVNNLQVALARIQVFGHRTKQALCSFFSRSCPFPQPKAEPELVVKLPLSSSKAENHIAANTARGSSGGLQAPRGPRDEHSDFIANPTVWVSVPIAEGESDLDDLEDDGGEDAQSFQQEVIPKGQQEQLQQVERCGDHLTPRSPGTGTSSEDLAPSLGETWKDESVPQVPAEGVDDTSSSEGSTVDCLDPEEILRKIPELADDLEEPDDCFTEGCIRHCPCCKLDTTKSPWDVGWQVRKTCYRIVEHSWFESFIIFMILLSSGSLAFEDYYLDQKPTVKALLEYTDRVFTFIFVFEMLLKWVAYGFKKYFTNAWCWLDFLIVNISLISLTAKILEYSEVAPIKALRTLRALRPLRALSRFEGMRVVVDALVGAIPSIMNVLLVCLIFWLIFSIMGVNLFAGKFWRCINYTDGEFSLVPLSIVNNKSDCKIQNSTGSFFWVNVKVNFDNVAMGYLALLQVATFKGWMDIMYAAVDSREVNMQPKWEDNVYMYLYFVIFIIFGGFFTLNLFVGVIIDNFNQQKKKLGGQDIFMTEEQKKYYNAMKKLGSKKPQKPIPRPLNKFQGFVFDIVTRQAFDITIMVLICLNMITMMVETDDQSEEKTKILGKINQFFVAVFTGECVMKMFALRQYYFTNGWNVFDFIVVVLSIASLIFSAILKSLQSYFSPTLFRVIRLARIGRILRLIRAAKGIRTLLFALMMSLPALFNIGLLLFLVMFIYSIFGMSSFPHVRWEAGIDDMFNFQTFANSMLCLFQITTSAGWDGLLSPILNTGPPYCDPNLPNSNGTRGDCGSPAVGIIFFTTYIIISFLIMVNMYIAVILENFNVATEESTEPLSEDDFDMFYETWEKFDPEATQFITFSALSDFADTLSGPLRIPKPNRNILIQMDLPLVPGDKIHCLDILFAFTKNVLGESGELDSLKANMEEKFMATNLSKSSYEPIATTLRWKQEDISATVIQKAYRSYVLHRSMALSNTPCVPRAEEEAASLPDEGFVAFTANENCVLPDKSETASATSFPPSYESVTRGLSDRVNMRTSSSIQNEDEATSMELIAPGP

For `COc1c([C@H]2[C@H](C(=O)Nc3ccc(C(F)(F)F)c(C(=N)NO)c3)O[C@@](C)(C(F)(F)F)[C@H]2C)ccc(F)c1F` [Example 12], the “Inhibition rate (%)” value was 76.58%.
For `CCONC(=O)c1cc(NC(=O)[C@@H]2O[C@@](C)(C(F)(F)F)[C@@H](C)[C@H]2c2ccc(F)c(F)c2OC)ccn1` [Example 2], the “Inhibition rate (%)” value was 76.36%.
In the case of `COc1c(C2C(C(=O)Nc3ccc(F)c(C(=N)NC#N)c3)OC(C)(C(F)(F)F)C2C)ccc(F)c1F` (centres unmarked) [Example 16], the “Inhibition rate (%)” value was 95.94%.
`COc1c([C@H]2[C@H](C(=O)Nc3ccc(F)c(C(=N)NO)c3F)O[C@@](C)(C(F)(F)F)[C@H]2C)ccc(F)c1F` [Example 15] was tested, and the “Inhibition rate (%)” value was 56.23%.
In the case of `CONC(=O)c1cc(NC(=O)[C@@H]2O[C@@](C)(C(F)(F)F)[C@@H](C)[C@H]2c2ccc(F)c(F)c2OC)ccn1` [Example 1], the “Inhibition rate (%)” value [1] was 80.08%.
In the case of `COc1c([C@H]2[C@H](C(=O)Nc3cc(C(=N)NO)c(F)cc3F)O[C@@](C)(C(F)(F)F)[C@H]2C)ccc(F)c1F` [Example 14], the “Inhibition rate (%)” value was 84.01%.
For `COc1c([C@H]2[C@H](C(=O)Nc3cc[n+]([O-])c(C(=N)NO)c3)O[C@@](C)(C(F)(F)F)[C@H]2C)ccc(F)c1F` [Example 8], the “Inhibition rate (%)” value was 90.96%.
With `COc1c([C@H]2[C@H](C(=O)Nc3cc(F)c(F)c(C(=N)NO)c3)O[C@@](C)(C(F)(F)F)[C@H]2C)ccc(F)c1F` [Example 13] the “Inhibition rate (%)” value was 89.85%.
`COc1c([C@H]2[C@H](C(=O)Nc3ccnc(C(=O)NN)c3)O[C@@](C)(C(F)(F)F)[C@H]2C)ccc(F)c1F` [Example 5] was tested, and the “Inhibition rate (%)” value was 50.04%.
With `COc1c([C@H]2[C@H](C(=O)Nc3ccc(F)c(C(=O)NO)c3)O[C@@](C)(C(F)(F)F)[C@H]2C)ccc(F)c1F` [Example 9] the “Inhibition rate (%)” value was 97.24%.
In the case of `CNNC(=O)c1cc(NC(=O)[C@@H]2O[C@@](C)(C(F)(F)F)[C@@H](C)[C@H]2c2ccc(F)c(F)c2OC)ccn1` [Example 6], the “Inhibition rate (%)” value [1] was 71.63%.
